{"source": "patent US20120214862A1", "about": "“MODULATION OF FACTOR 7 EXPRESSION” (ISIS Pharmaceuticals, Inc., priority 2009, published 2012)", "note": "In the oligonucleotide strings, read from the 5' end, every base follows the letter of its sugar. An asterisk marks phosphorothioate; unmarked linkages are phosphodiester. Other units and linkages are bracketed, terminal groups are in braces. A string of capitals states the bases alone. e = 2'-O-(2-methoxyethyl) (MOE); [5mC] = 5-methylcytosine; d = 2'-deoxy (DNA)"}
{"test_system": "human Factor 7 mRNA", "experiment": "Inhibition of human Factor 7 mRNA by 2-10-2 MOE shortmers in HepB3 cells, electroporation, 1,000 nM", "format": "cell-based", "settings": "electroporation, 1,000 nM oligonucleotide, approximately 24 hours, relative to untreated control cells", "in_short": "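14-mer 2-10-2 2′-MOE gapmers, full phosphorothioate, 5-methylcytidines, electroporated at 1,000 nM into HepB3 cells (20,000/well). After ~24 h, mRNA quantified by real-time RT-PCR, normalized to RIBOGREEN total RNA; percent inhibition relative to untreated cells.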", "units": {"% inhibition of human Factor 7 mRNA": "%"}}
{"substance": "435804 (antisense e[5mC]*eA*dG*dG*dG*dA*d[5mC]*dT*d[5mC]*dT*d[5mC]*dA*eG*e[5mC]) [compound 435804]", "% inhibition of human Factor 7 mRNA": 26}
{"substance": "435669 (antisense eG*eG*dA*d[5mC]*d[5mC]*dT*dG*d[5mC]*d[5mC]*dA*dT*dG*eG*eA) [compound 435669]", "% inhibition of human Factor 7 mRNA": 36}
{"substance": "435673 (antisense eA*eG*dA*d[5mC]*d[5mC]*dA*d[5mC]*d[5mC]*d[5mC]*dA*dG*dA*eT*eG) [compound 435673]", "% inhibition of human Factor 7 mRNA": 34}
{"substance": "435691 (antisense e[5mC]*eA*dG*d[5mC]*d[5mC]*dG*d[5mC]*dT*dG*dA*d[5mC]*d[5mC]*eA*eA) [compound 435691]", "% inhibition of human Factor 7 mRNA": 25}
{"substance": "435490 (antisense e[5mC]*e[5mC]*dT*dG*dG*dT*dG*dT*dA*d[5mC]*dA*d[5mC]*e[5mC]*e[5mC]) [compound 435490]", "% inhibition of human Factor 7 mRNA": 49}
{"substance": "435639 (antisense eT*e[5mC]*d[5mC]*dA*dG*dA*dA*d[5mC]*dA*dG*d[5mC]*dT*eT*e[5mC]) [compound 435639]", "% inhibition of human Factor 7 mRNA": 31}
{"substance": "435734 (antisense eA*eT*dG*d[5mC]*dT*dT*d[5mC]*dT*dG*dA*dA*dT*eT*eG) [compound 435734]", "% inhibition of human Factor 7 mRNA": 16}
{"substance": "435825 (antisense e[5mC]*eT*dG*dG*dT*dT*dT*dT*dG*dG*dA*dG*eG*eA) [compound 435825]", "% inhibition of human Factor 7 mRNA": 0}
{"substance": "435774 (antisense eG*eT*d[5mC]*d[5mC]*d[5mC]*dA*dG*dG*dG*dA*dA*dG*eG*e[5mC]) [compound 435774]", "% inhibition of human Factor 7 mRNA": 17}
{"substance": "435668 (antisense eT*eG*d[5mC]*d[5mC]*dA*dT*dG*dG*dA*d[5mC]*dA*d[5mC]*eT*e[5mC]) [compound 435668]", "% inhibition of human Factor 7 mRNA": 75}
{"substance": "435738 (antisense e[5mC]*eA*dG*dA*dG*dG*dA*dT*dG*dA*dG*d[5mC]*eA*e[5mC]) [compound 435738]", "% inhibition of human Factor 7 mRNA": 16}
{"substance": "435786 (antisense eA*eG*dG*dT*dG*dA*d[5mC]*d[5mC]*d[5mC]*dG*dT*dG*eA*eG) [compound 435786]", "% inhibition of human Factor 7 mRNA": 68}
{"substance": "435671 (antisense eT*e[5mC]*dA*d[5mC]*d[5mC]*dA*dA*d[5mC]*dA*dA*d[5mC]*dA*eG*eG) [compound 435671]", "% inhibition of human Factor 7 mRNA": 28}
{"substance": "435809 (antisense e[5mC]*eT*dG*dA*d[5mC]*dA*dA*dT*dG*dT*dG*dA*eT*eG) [compound 435809]", "% inhibition of human Factor 7 mRNA": 5}
{"substance": "435488 (antisense e[5mC]*eA*dG*dT*d[5mC]*d[5mC]*dT*dG*dG*dG*dT*d[5mC]*eA*eT) [compound 435488]", "% inhibition of human Factor 7 mRNA": 17}
{"substance": "435634 (antisense eT*eG*dA*dA*dA*dT*d[5mC]*dT*d[5mC]*dT*dG*d[5mC]*eA*eG) [compound 435634]", "% inhibition of human Factor 7 mRNA": 5}
{"substance": "435646 (antisense eT*eA*dG*dG*dA*d[5mC]*dT*dG*dG*dA*dG*d[5mC]*eT*eG) [compound 435646]", "% inhibition of human Factor 7 mRNA": 13}
{"substance": "435802 (antisense eG*eT*d[5mC]*dA*d[5mC]*d[5mC]*dT*dA*dG*dA*d[5mC]*d[5mC]*eA*eA) [compound 435802]", "% inhibition of human Factor 7 mRNA": 61}
{"substance": "435847 (antisense eT*eG*dG*dT*dG*dT*dG*d[5mC]*dA*d[5mC]*dA*d[5mC]*eA*eT) [compound 435847]", "% inhibition of human Factor 7 mRNA": 36}
{"substance": "435845 (antisense eG*e[5mC]*dT*d[5mC]*dA*dT*dG*dG*d[5mC]*dA*dG*dA*e[5mC]*eA) [compound 435845]", "% inhibition of human Factor 7 mRNA": 21}
{"substance": "435803 (antisense eG*eA*dG*dA*dA*dT*dT*dG*d[5mC]*d[5mC]*d[5mC]*dA*eG*eG) [compound 435803]", "% inhibition of human Factor 7 mRNA": 0}
{"substance": "435753 (antisense eA*eA*dG*dA*dG*dT*dG*d[5mC]*dA*dG*d[5mC]*dT*eT*eG) [compound 435753]", "% inhibition of human Factor 7 mRNA": 9}
{"substance": "435683 (antisense eA*eT*dG*dT*d[5mC]*dG*dT*dG*dG*dT*dT*dG*eG*eT) [compound 435683]", "% inhibition of human Factor 7 mRNA": 3}
{"substance": "435658 (antisense eT*e[5mC]*dA*d[5mC]*dT*dG*d[5mC]*dA*dG*dT*dA*d[5mC]*eT*eG) [compound 435658]", "% inhibition of human Factor 7 mRNA": 60}
{"substance": "435645 (antisense eG*eG*dA*dG*d[5mC]*dT*dG*dG*dT*d[5mC]*d[5mC]*dT*eT*eG) [compound 435645]", "% inhibition of human Factor 7 mRNA": 44}
{"substance": "435642 (antisense eA*e[5mC]*dA*d[5mC]*dT*dG*dG*dT*d[5mC]*d[5mC]*d[5mC]*d[5mC]*eA*eT) [compound 435642]", "% inhibition of human Factor 7 mRNA": 60}
{"substance": "435724 (antisense e[5mC]*eT*dG*dA*dG*dG*d[5mC]*d[5mC]*dA*dG*d[5mC]*dA*eG*eA) [compound 435724]", "% inhibition of human Factor 7 mRNA": 52}
{"substance": "435749 (antisense e[5mC]*eA*dG*d[5mC]*d[5mC]*dA*dG*dG*dG*d[5mC]*d[5mC]*dT*eG*eG) [compound 435749]", "% inhibition of human Factor 7 mRNA": 29}
{"substance": "435686 (antisense e[5mC]*eA*dG*dT*dG*dA*dG*dG*dA*d[5mC]*d[5mC]*dA*e[5mC]*eG) [compound 435686]", "% inhibition of human Factor 7 mRNA": 31}
{"substance": "435772 (antisense eG*e[5mC]*dA*dG*dT*d[5mC]*d[5mC]*d[5mC]*dT*dG*d[5mC]*dT*e[5mC]*eA) [compound 435772]", "% inhibition of human Factor 7 mRNA": 42}
{"substance": "435637 (antisense eT*eG*dA*dA*dG*d[5mC]*d[5mC]*d[5mC]*dA*dA*dG*d[5mC]*eA*eG) [compound 435637]", "% inhibition of human Factor 7 mRNA": 11}
{"substance": "435807 (antisense e[5mC]*eA*dG*dT*dA*d[5mC]*dT*dT*d[5mC]*d[5mC]*d[5mC]*dA*e[5mC]*eG) [compound 435807]", "% inhibition of human Factor 7 mRNA": 35}
{"substance": "435737 (antisense eG*eT*dG*d[5mC]*dA*dG*d[5mC]*d[5mC]*d[5mC]*dG*dG*d[5mC]*eA*e[5mC]) [compound 435737]", "% inhibition of human Factor 7 mRNA": 70}
{"substance": "435850 (antisense e[5mC]*eT*dT*dG*dG*d[5mC]*d[5mC]*dA*dG*dT*dG*dT*eG*eG) [compound 435850]", "% inhibition of human Factor 7 mRNA": 15}
{"substance": "435831 (antisense eG*eA*dT*d[5mC]*dT*dT*d[5mC]*dA*d[5mC]*dA*dT*dA*eG*e[5mC]) [compound 435831]", "% inhibition of human Factor 7 mRNA": 51}
{"substance": "435672 (antisense eA*e[5mC]*d[5mC]*d[5mC]*dA*dG*dA*dT*dG*dG*dT*dG*eT*eT) [compound 435672]", "% inhibition of human Factor 7 mRNA": 12}
{"substance": "435479 (antisense e[5mC]*eA*d[5mC]*dT*d[5mC]*d[5mC]*d[5mC]*d[5mC]*dT*dT*dT*dG*eG*eG) [compound 435479]", "% inhibition of human Factor 7 mRNA": 9}
{"substance": "435740 (antisense eT*e[5mC]*dA*dT*dT*dT*d[5mC]*dA*dG*dT*dG*dA*eT*eG) [compound 435740]", "% inhibition of human Factor 7 mRNA": 0}
{"substance": "435783 (antisense eA*eA*dA*d[5mC]*d[5mC]*dG*dG*d[5mC]*dA*dT*dG*d[5mC]*eG*e[5mC]) [compound 435783]", "% inhibition of human Factor 7 mRNA": 49}
{"substance": "435685 (antisense eA*eG*dG*dA*d[5mC]*d[5mC]*dA*d[5mC]*dG*dG*dG*d[5mC]*eT*eG) [compound 435685]", "% inhibition of human Factor 7 mRNA": 40}
{"substance": "435732 (antisense eG*eA*dA*dA*dA*dG*dT*dG*dA*dG*dA*dG*e[5mC]*eT) [compound 435732]", "% inhibition of human Factor 7 mRNA": 0}
{"substance": "435794 (antisense eG*eA*dG*dG*dT*dA*d[5mC]*dA*d[5mC]*dA*dG*dG*e[5mC]*eT) [compound 435794]", "% inhibition of human Factor 7 mRNA": 26}
{"substance": "435730 (antisense eT*eA*dA*dA*d[5mC]*dA*dA*d[5mC]*d[5mC]*dG*d[5mC]*d[5mC]*eT*eT) [compound 435730]", "% inhibition of human Factor 7 mRNA": 49}
{"substance": "435811 (antisense eG*eT*dG*dG*dT*d[5mC]*dA*dA*dG*dG*dA*dT*eG*eA) [compound 435811]", "% inhibition of human Factor 7 mRNA": 27}
{"substance": "435676 (antisense eG*eA*dT*dT*dT*dT*dG*dT*d[5mC]*dG*dA*dA*eA*e[5mC]) [compound 435676]", "% inhibition of human Factor 7 mRNA": 11}
{"substance": "435504 (antisense eA*eT*dG*dT*dA*d[5mC]*dT*dG*dG*dG*dA*dG*eA*e[5mC]) [compound 435504]", "% inhibition of human Factor 7 mRNA": 8}
{"substance": "435816 (antisense eT*e[5mC]*d[5mC]*dA*dA*dA*dG*dG*dA*d[5mC]*dA*dA*eG*eG) [compound 435816]", "% inhibition of human Factor 7 mRNA": 4}
{"substance": "435842 (antisense eA*eT*dT*dT*d[5mC]*d[5mC]*d[5mC]*dA*dT*dT*dG*dG*e[5mC]*eA) [compound 435842]", "% inhibition of human Factor 7 mRNA": 0}
{"substance": "435493 (antisense eG*eA*d[5mC]*d[5mC]*d[5mC]*dT*dG*dG*dT*dG*dT*dA*e[5mC]*eA) [compound 435493]", "% inhibition of human Factor 7 mRNA": 58}
{"substance": "435498 (antisense eT*eG*dG*dG*dA*dG*dA*d[5mC]*d[5mC]*d[5mC]*dT*dG*eG*eT) [compound 435498]", "% inhibition of human Factor 7 mRNA": 37}
{"substance": "435781 (antisense eA*e[5mC]*d[5mC]*dA*d[5mC]*dG*d[5mC]*dG*dG*dT*dG*dG*eT*eG) [compound 435781]", "% inhibition of human Factor 7 mRNA": 0}
{"substance": "435814 (antisense eT*eG*dA*d[5mC]*dG*dA*dG*dA*dG*dG*dA*d[5mC]*e[5mC]*eA) [compound 435814]", "% inhibition of human Factor 7 mRNA": 31}
{"substance": "435662 (antisense eT*eG*dG*dA*dT*dA*dT*dT*d[5mC]*dA*dA*d[5mC]*eT*eG) [compound 435662]", "% inhibition of human Factor 7 mRNA": 19}
{"substance": "435481 (antisense eG*eG*dG*dT*d[5mC]*dA*dT*d[5mC]*dA*dG*d[5mC]*d[5mC]*eG*eG) [compound 435481]", "% inhibition of human Factor 7 mRNA": 50}
{"substance": "435726 (antisense eG*e[5mC]*dA*dA*dT*dG*dA*dA*dG*dG*d[5mC]*dA*eG*eA) [compound 435726]", "% inhibition of human Factor 7 mRNA": 26}
{"substance": "435801 (antisense e[5mC]*eG*dG*dT*dT*dG*dG*d[5mC]*d[5mC]*dA*dG*dG*e[5mC]*e[5mC]) [compound 435801]", "% inhibition of human Factor 7 mRNA": 38}
